The NIST ThermoML archive (doi:10.1016/j.jct.2013.01.012)

How the values were obtained:
[1] = mn = molality of the nth substance listed, in mol/kg; details: 101 kPa, Liquid; for speed of sound: Sing-around technique in a fixed-path interferometer; for mass density: Vibrating tube method
[2] = refractive index (Na D-line) (dimensionless); mn = molality of the nth substance listed, in mol/kg; details: 101 kPa, Liquid, Standard Abbe refractometry

O=P([O-])([O-])O.[K+].[K+] [dipotassium hydrogen phosphate] + O
Details | mass density, 298.15 K [kg/m3] | mass density, 303.15 K [kg/m3] | mass density, 308.15 K [kg/m3] | refractive index, 298.15 K | refractive index, 303.15 K | refractive index, 308.15 K | speed of sound, 298.15 K [m/s] | speed of sound, 303.15 K [m/s] | speed of sound, 308.15 K [m/s]
[1], m1 = 0.1 | 1016.33 | 1015.38 | 1014.18 | – | – | – | 1512.8 | 1525.1 | 1535.6
[1], m1 = 0.3 | 1041.48 | 1040.03 | 1038.39 | – | – | – | 1542.9 | 1553.8 | 1563.4
[1], m1 = 0.5 | 1072.35 | 1071.14 | 1069.06 | – | – | – | 1574.6 | 1584.6 | 1593.3
[1], m1 = 0.7 | 1103.77 | 1103.01 | 1103.01 | – | – | – | 1607.3 | 1616.8 | 1626
[1], m1 = 0.9 | 1135.65 | 1136.16 | 1134.44 | – | – | – | 1641.6 | 1651.1 | 1657.8
[2], m1 = 0.1 | – | – | – | 1.3354 | 1.3346 | 1.334 | – | – | –
[2], m1 = 0.3 | – | – | – | 1.3404 | 1.3397 | 1.3392 | – | – | –
[2], m1 = 0.5 | – | – | – | 1.3456 | 1.3453 | 1.3445 | – | – | –
[2], m1 = 0.7 | – | – | – | 1.3506 | 1.35 | 1.3495 | – | – | –
[2], m1 = 0.9 | – | – | – | 1.3557 | 1.3554 | 1.3547 | – | – | –

O=P([O-])([O-])O.[Na+].[Na+] [disodium hydrogen phosphate] + O
Details | mass density, 298.15 K [kg/m3] | mass density, 303.15 K [kg/m3] | mass density, 308.15 K [kg/m3] | refractive index, 298.15 K | refractive index, 303.15 K | refractive index, 308.15 K | speed of sound, 298.15 K [m/s] | speed of sound, 303.15 K [m/s] | speed of sound, 308.15 K [m/s]
[1], m1 = 0.1 | 1010.86 | 1009.51 | 1008.19 | – | – | – | 1514.6 | 1526.5 | 1537
[1], m1 = 0.3 | 1038.69 | 1037 | 1035.61 | – | – | – | 1549.5 | 1560.1 | 1569.8
[1], m1 = 0.5 | 1066.76 | 1069.09 | 1051.41 | – | – | – | 1583.5 | 1598.6 | 1588.7
[1], m1 = 0.7 | 1096.95 | 1095.37 | 1099.82 | – | – | – | 1621.3 | 1630 | 1646.2
[1], m1 = 0.9 | 1129.62 | 1128.52 | 1162.21 | – | – | – | 1663.2 | 1672.3 | 1685.8
[2], m1 = 0.1 | – | – | – | 1.3354 | 1.3347 | 1.3344 | – | – | –
[2], m1 = 0.3 | – | – | – | 1.3408 | 1.3404 | 1.3398 | – | – | –
[2], m1 = 0.5 | – | – | – | 1.3457 | 1.3456 | 1.3448 | – | – | –
[2], m1 = 0.7 | – | – | – | 1.3512 | 1.3507 | 1.3499 | – | – | –
[2], m1 = 0.9 | – | – | – | 1.3562 | 1.3557 | 1.3552 | – | – | –

O=P([O-])(O)O.[Li+] [lithium dihydrogen phosphate] + O
Details | mass density, 298.15 K [kg/m3] | mass density, 303.15 K [kg/m3] | mass density, 308.15 K [kg/m3] | refractive index, 298.15 K | refractive index, 303.15 K | refractive index, 308.15 K | speed of sound, 298.15 K [m/s] | speed of sound, 303.15 K [m/s] | speed of sound, 308.15 K [m/s]
[1], m1 = 0.1 | 1004.55 | 1003.21 | 1001.59 | – | – | – | 1506.5 | 1518.5 | 1528.8
[1], m1 = 0.3 | 1018.97 | 1017.71 | 1016.05 | – | – | – | 1525.5 | 1536.8 | 1546.5
[1], m1 = 0.5 | 1033.8 | 1032.57 | 1031.29 | – | – | – | 1544.1 | 1555 | 1564.5
[1], m1 = 0.7 | 1048.96 | 1048.1 | 1046.58 | – | – | – | 1569.2 | 1573.7 | 1582.6
[1], m1 = 0.9 | 1064.91 | 1063.79 | 1055.48 | – | – | – | 1582.6 | 1593 | 1593.1
[2], m1 = 0.1 | – | – | – | 1.3342 | 1.3332 | 1.3327 | – | – | –
[2], m1 = 0.3 | – | – | – | 1.3365 | 1.3363 | 1.3355 | – | – | –
[2], m1 = 0.5 | – | – | – | 1.3394 | 1.339 | 1.3387 | – | – | –
[2], m1 = 0.7 | – | – | – | 1.3421 | 1.3418 | 1.3414 | – | – | –
[2], m1 = 0.9 | – | – | – | 1.3452 | 1.3448 | 1.3444 | – | – | –
